Results from patent US20050009924A1 (priority 2003, published 2005).
Like-named read-outs stand apart in the source and are kept apart here.

Columns and labels:
human hepatoma G2 cells = assay: Cytotoxicity assay (XTT colorimetric), Hep G2; assay type: cell-based; details: 48 h of drug exposure
rat glioma C6 cells = assay: Cytotoxicity assay (XTT colorimetric), C6 cells; assay type: cell-based; details: 48 h of drug exposure
[1] = test system: transcriptional activity of hTERT; assay: SEAP reporter assay of hTERT expression, PhTERT-SEAP (hTERT-BJ1); assay type: cell-based, human; details: hTERT-BJ1; for activity at 2.2 µM / activity at 22 µM / activity at 220 µM: Homo sapiens, read-out: Relative SEAP activity (%)
Outline: (§1)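 We treated G418-selected reporter cells with varying drug amounts for 24 h and measured SEAP in the heat-inactivated medium as the rate of 405 nm absorbance increase.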

[2] = test system: transcriptional activity of hTERT; assay: SEAP reporter assay of hTERT expression, PhTERT-SEAP (H1299); assay type: cell-based, human; details: for activity at 2.2 µM / activity at 22 µM / activity at 220 µM: Homo sapiens, NCI-H1299, H1299, read-out: Relative SEAP activity (%); for Relative SEAP activity (%): hTERT-H1299
Outline: as §1

CMV promoter = assay: SEAP reporter assay of CMV promoter activity, PCMV-SEAP (hTERT-BJ1); assay type: cell-based; details: Homo sapiens, read-out: Relative SEAP activity (%)
[3] = MTT relative viability, PCMV-SEAP (hTERT-BJ1) cells; assay type: cell-based; details: human, stable PCMV-SEAP reporter clone
Excerpt: Culture media were changed every 3 days. […] The stable clones were selected using G418.

[4] = MTT relative viability, PhTERT-SEAP (H1299) cells; details: human
[5] = MTT relative viability, PhTERT-SEAP (hTERT-BJ1) cells; details: human
[6] = test system: iron-induced lipid peroxidation in rat brain homogenates; assay: Iron-induced lipid peroxidation in rat brain homogenates; details: 10 mM; relative percentage of inhibition (Table 1)
[7] = test system: hepatitis B virus transfected hepatoma cell lines, HepG 2.2.15 cells; assay: Cytotoxicity assay, 2.2.15 cells; assay type: cell-based, human; details: 48 h of drug exposure
[8] = test system: non-small-cell lung cancer cells H1299

Row | melting point | SMILES | IC50 (human hepatoma G2 cells; Homo sapiens, HepG2) | IC50 (rat glioma C6 cells; Rattus norvegicus, C6) | activity at 2.2 µM [1] | activity at 22 µM [1] | activity at 220 µM [1] | activity at 2.2 µM [2] | activity at 22 µM [2] | activity at 220 µM [2] | viability at 48 h, 2.2 µM [4] | viability at 48 h, 22 µM [4] | viability at 48 h, 220 µM [4] | viability at 48 h, 2.2 µM [5] | viability at 48 h, 22 µM [5] | viability at 48 h, 220 µM [5] | LP (%) (10 mM) [6] | IC50 (human hepatoma G2 cells) | IC50 (rat glioma C6 cells) | IC50 [7] | further results
1 | 297 to 299 °C | COc1ccc(CSc2cccc3c2C(=O)c2cccc(SCc4ccc(OC)cc4)c2C3=O)cc1 [IIj, 1,5-Bis(p-methoxybenzylthio)-Anthraquinone] | 28.6 ± 1.2 µM | 25.1 ± 2.8 µM | 142 ± 27.7% | 141 ± 22.6% | 118 ± 19.2% | 92 ± 3.3% | 96 ± 8.5% | 88 ± 5.6% | 89 ± 6.1% | 59 ± 5.4% | 42 ± 0.3% | 119 ± 9.4% | 98 ± 13.4% | 62 ± 6.4% | 67 ± 2.9% |  |  |  | activity at 2 µM (CMV promoter; 2.0 μM): 103 ± 15%; activity at 22 µM (CMV promoter; 22 μM): 102 ± 8%; activity at 220 µM (CMV promoter; 220 μM): 100 ± 8%; viability at 48 h, 2 µM ([3]; 2.0 μM): 116 ± 13%; viability at 48 h, 22 µM ([3]; 22 μM): 67 ± 18%; viability at 48 h, 220 µM ([3]; 220 μM): 52 ± 7%
2 | 209 to 210 °C | O=C1c2cccc(SCCc3ccccc3)c2C(=O)c2cccc(SCCc3ccccc3)c21 [IIk, 1,5-Bis(phenylethylthio)-anthraquinone] | 36.9 ± 1.5 µM | 32.9 ± 3.3 µM | 119 ± 12.2% | 109 ± 23.4% | 110 ± 30.6% | 108 ± 0.5% | 102 ± 0.5% | 97 ± 4.8% | 93 ± 6.2% | 51 ± 9.3% | 27 ± 2.9% | 91 ± 3.9% | 54 ± 4.4% | 35 ± 4.1% | 69 ± 1.5% |  |  |  | 
3 |  | O=C1c2cccc(NCCO)c2C(=O)c2cccc(NCCO)c21 [IVb, 1,5-Bis(ethanolamino)anthraquinone] |  |  |  |  |  |  |  |  |  |  |  |  |  |  |  | > 20 µM | > 20 µM | 19.3 µM | Relative SEAP activity (%) ([1]; 3.0 μM): 45 ± 20.6%; Relative SEAP activity (%) ([1]; 30 μM): 16 ± 13.1%; Relative SEAP activity (%) ([1]; 308 μM): 11 ± 11.6%; Relative SEAP activity (%) ([2]; 3.0 μM): 91 ± 3.9%; Relative SEAP activity (%) ([2]; 30 μM): 88 ± 4.5%; Relative SEAP activity (%) ([2]; 308 μM): 5.7 ± 1.1%; Relative MTT viability (%) (hTERT-BJ1 cells; 3 µM): 116 ± 5.6%; Relative MTT viability (%) (hTERT-BJ1 cells; 30 µM): 90 ± 26.9%; Relative MTT viability (%) (hTERT-BJ1 cells; 308 µM): 69 ± 18.7%; Relative MTT viability (%) ([8]; 3 µM): 105 ± 6.3%; Relative MTT viability (%) ([8]; 30 µM): 88 ± 9.1%; Relative MTT viability (%) ([8]; 308 µM): 53 ± 2.8%
4 |  | O=C1c2cccc(NCCNCCO)c2C(=O)c2cccc(NCCNCCO)c21 [IVe, 1,5-Bis[2-(2-Aminoethylamino)ethanol]anthraquinone] |  |  |  |  |  |  |  |  |  |  |  |  |  |  |  | 1.2 ± 0.02 µM | 1.17 µM | 8.35 µM | Relative SEAP activity (%) ([1]; 2.4 μM): 60 ± 11.6%; Relative SEAP activity (%) ([1]; 24 μM): 40 ± 17.3%; Relative SEAP activity (%) ([1]; 242 μM): 52 ± 19.1%; Relative SEAP activity (%) ([2]; 2.4 μM): 87 ± 3.8%; Relative SEAP activity (%) ([2]; 24 μM): 43 ± 5.5%; Relative SEAP activity (%) ([2]; 242 μM): 40 ± 6.7%; Relative MTT viability (%) (hTERT-BJ1 cells; 2.4 µM): 84 ± 19.8%; Relative MTT viability (%) (hTERT-BJ1 cells; 24 µM): 60 ± 11.2%; Relative MTT viability (%) (hTERT-BJ1 cells; 242 µM): 44 ± 12.9%; Relative MTT viability (%) ([8]; 2.4 µM): 97 ± 8.7%; Relative MTT viability (%) ([8]; 24 µM): 37 ± 3.9%; Relative MTT viability (%) ([8]; 242 µM): 11 ± 4.1%
